Data on 14 sequences can be found in article PMC10894229, “Novel antimicrobial peptides against Cutibacterium acnes designed by deep learning” (Scientific Reports, 2024).

Read-outs that look alike come from different tables or passages of the source.

The subject of the experiment is C. acnes (BNCC 336649). Particulars: for Concentration with antimicrobial activity >50%: C. acnes; for Concentration with antimicrobial activity >50% / Category of in vitro test antimicrobial activity against C. acnes: supplementary Table 5; for Antimicrobial activity > 50% against C. acnes: broth microdilution, 48 h, OD 630 nm. As to the method:
The strain of C. acnes (BNCC 336649) was cultured in Wilkins-Chalgren Anaerobe Broth (QingDao RiShui Bio-technologies, 11071) at 37 °C under an anaerobic atmosphere performed by a Labiophy HL-B automatic hypoxic workstation (Dalian, Liaoning Province, Labiophy HL-B), inflated with a gas mix of 15% carbon dioxide, 83% nitrogen, and 2% hydrogen.
Logarithmic phase growth bacteria were used for antimicrobial testing.
To determine the MIC values, the broth microdilution method was used. […] Briefly, peptide samples were prepared as a stock solution in water and then diluted. 180 μL of the bacterial suspension (10^7 CFU/mL) and 20 μL of the tested sample were added together into 96-Well Deep Well Plates and incubated 24 h for E. coli and S. aureus or 48 h for C. acnes and C. albicans. For each test, two columns of the plate were kept for sterility control (broth only) and growth control (broth with bacterial inoculums, no antibiotics). The optical density of cultures was measured at 630 nm by a microplate reader (SYNERGY-H1, BioTek, USA) to estimate bacterial growth. All experiments were conducted in triplicate. We used ciprofloxacin (CPFX) as the antibiotic control for antimicrobial testing.
(In general: Dilution methods test growth across graded concentrations, often in twofold steps.)

Turning to SKILGKLTKAAKIAW [AMP-28], the “Concentration with antimicrobial activity >50%” value is listed as “no” and the “Category of in vitro test antimicrobial activity against C. acnes” value (“Category” for short) is “No AMP”. For the same sequence, the “Antimicrobial activity > 50% against C. acnes” value (at 25 µg/mL) is “No (A peptide was deemed to have antimicrobial activity if C. acnes growth was inhibited by more than 50% at a given concentration)”. In addition, under “at 50 µg/mL”, the “Antimicrobial activity > 50% against C. acnes” value is reported as “No (A peptide was deemed to have antimicrobial activity if C. acnes growth was inhibited by more than 50% at a given concentration)”. Moreover, the “Antimicrobial activity > 50% against C. acnes” value (at 100 µg/mL) was “No (A peptide was deemed to have antimicrobial activity if C. acnes growth was inhibited by more than 50% at a given concentration)”.

Turning to GLVSRLRRLVTPLL [AMP-4], the “Category” value was “Medium AMP”. For the setting “at 25 µg/mL”, the “Antimicrobial activity > 50% against C. acnes” value was “No (A peptide was deemed to have antimicrobial activity if C. acnes growth was inhibited by more than 50% at a given concentration)”. For the setting “at 50 µg/mL”, the “Antimicrobial activity > 50% against C. acnes” value is given as “Inhibit (A peptide was deemed to have antimicrobial activity if C. acnes growth was inhibited by more than 50% at a given concentration)”. For the same sequence, the “Antimicrobial activity > 50% against C. acnes” value (at 100 µg/mL) is given as “Inhibit (A peptide was deemed to have antimicrobial activity if C. acnes growth was inhibited by more than 50% at a given concentration)”.

RISSLLKRLAIKIK [AMP-16]: the “Concentration with antimicrobial activity >50%” value worked out at 25 µg/mL and the “Category” value is recorded as “Medium AMP”. The “Antimicrobial activity > 50% against C. acnes” value (at 25 µg/mL) is listed as “Inhibit (A peptide was deemed to have antimicrobial activity if C. acnes growth was inhibited by more than 50% at a given concentration)”. Further, where the note is “at 50 µg/mL”, the “Antimicrobial activity > 50% against C. acnes” value is on record as “Inhibit (A peptide was deemed to have antimicrobial activity if C. acnes growth was inhibited by more than 50% at a given concentration)”. Under “at 100 µg/mL”, the “Antimicrobial activity > 50% against C. acnes” value was “Inhibit (A peptide was deemed to have antimicrobial activity if C. acnes growth was inhibited by more than 50% at a given concentration)”.

With GIGALVKFLPKLFK [AMP-41], the “Concentration with antimicrobial activity >50%” value was determined as 25 µg/mL and the “Category” value is listed as “Medium AMP”. Besides, under “at 25 µg/mL”, the “Antimicrobial activity > 50% against C. acnes” value was “Inhibit (A peptide was deemed to have antimicrobial activity if C. acnes growth was inhibited by more than 50% at a given concentration)”. The “Antimicrobial activity > 50% against C. acnes” value (at 50 µg/mL) is on record as “Inhibit (A peptide was deemed to have antimicrobial activity if C. acnes growth was inhibited by more than 50% at a given concentration)”. The “Antimicrobial activity > 50% against C. acnes” value (at 100 µg/mL) is “Inhibit (A peptide was deemed to have antimicrobial activity if C. acnes growth was inhibited by more than 50% at a given concentration)”.

In the case of LLSLIRRTVARLKKA [AMP-18], the “Concentration with antimicrobial activity >50%” value worked out at 25 µg/mL and the “Category” value was “Medium AMP”. The “Antimicrobial activity > 50% against C. acnes” value (at 25 µg/mL) is given as “Inhibit (A peptide was deemed to have antimicrobial activity if C. acnes growth was inhibited by more than 50% at a given concentration)”. Besides, where the note is “at 50 µg/mL”, the “Antimicrobial activity > 50% against C. acnes” value is listed as “Inhibit (A peptide was deemed to have antimicrobial activity if C. acnes growth was inhibited by more than 50% at a given concentration)”. For the same sequence, for the setting “at 100 µg/mL”, the “Antimicrobial activity > 50% against C. acnes” value is reported as “Inhibit (A peptide was deemed to have antimicrobial activity if C. acnes growth was inhibited by more than 50% at a given concentration)”.

For FLKKLRTAVLKLTKG [AMP-17], the “Concentration with antimicrobial activity >50%” value turned out to be 25 µg/mL and the “Category” value is on record as “Medium AMP”. Besides, the “Antimicrobial activity > 50% against C. acnes” value (at 25 µg/mL) is on record as “Inhibit (A peptide was deemed to have antimicrobial activity if C. acnes growth was inhibited by more than 50% at a given concentration)”. Further, the “Antimicrobial activity > 50% against C. acnes” value (at 50 µg/mL) is “Inhibit (A peptide was deemed to have antimicrobial activity if C. acnes growth was inhibited by more than 50% at a given concentration)”. Also, the “Antimicrobial activity > 50% against C. acnes” value (at 100 µg/mL) is reported as “Inhibit (A peptide was deemed to have antimicrobial activity if C. acnes growth was inhibited by more than 50% at a given concentration)”.

GLTLLKKFLHAAKKF [AMP-23]: the “Concentration with antimicrobial activity >50%” value was found to be 25 µg/mL and the “Category” value was “Medium AMP”. Further, the “Antimicrobial activity > 50% against C. acnes” value (at 25 µg/mL) is reported as “Inhibit (A peptide was deemed to have antimicrobial activity if C. acnes growth was inhibited by more than 50% at a given concentration)”. Also, where the note is “at 50 µg/mL”, the “Antimicrobial activity > 50% against C. acnes” value is on record as “Inhibit (A peptide was deemed to have antimicrobial activity if C. acnes growth was inhibited by more than 50% at a given concentration)”. Also, the “Antimicrobial activity > 50% against C. acnes” value (at 100 µg/mL) was “Inhibit (A peptide was deemed to have antimicrobial activity if C. acnes growth was inhibited by more than 50% at a given concentration)”.

For DALRALHHLLKRAL [AMP-42], the “Concentration with antimicrobial activity >50%” value is “no” and the “Category” value is “No AMP”. The “Antimicrobial activity > 50% against C. acnes” value (at 25 µg/mL) was “No (A peptide was deemed to have antimicrobial activity if C. acnes growth was inhibited by more than 50% at a given concentration)”. The “Antimicrobial activity > 50% against C. acnes” value (at 50 µg/mL) was “No (A peptide was deemed to have antimicrobial activity if C. acnes growth was inhibited by more than 50% at a given concentration)”. Also, the “Antimicrobial activity > 50% against C. acnes” value (at 100 µg/mL) is “No (A peptide was deemed to have antimicrobial activity if C. acnes growth was inhibited by more than 50% at a given concentration)”.

For the sequence KLVKRVLKKLRKLF [AMP-8], the “Category” value was “Strong AMP”. Also, the “Antimicrobial activity > 50% against C. acnes” value (at 25 µg/mL) was “Inhibit (A peptide was deemed to have antimicrobial activity if C. acnes growth was inhibited by more than 50% at a given concentration)”. Moreover, the “Antimicrobial activity > 50% against C. acnes” value (at 50 µg/mL) was “Inhibit (A peptide was deemed to have antimicrobial activity if C. acnes growth was inhibited by more than 50% at a given concentration)”. Also, for the setting “at 100 µg/mL”, the “Antimicrobial activity > 50% against C. acnes” value is given as “Inhibit (A peptide was deemed to have antimicrobial activity if C. acnes growth was inhibited by more than 50% at a given concentration)”.

For LQLLKQFRKVLKKLS [AMP-13], the “Concentration with antimicrobial activity >50%” value is on record as 25 µg/mL and the “Category” value is on record as “Medium AMP”. Moreover, the “Antimicrobial activity > 50% against C. acnes” value (at 25 µg/mL) is given as “Inhibit (A peptide was deemed to have antimicrobial activity if C. acnes growth was inhibited by more than 50% at a given concentration)”. In addition, the “Antimicrobial activity > 50% against C. acnes” value (at 50 µg/mL) is on record as “Inhibit (A peptide was deemed to have antimicrobial activity if C. acnes growth was inhibited by more than 50% at a given concentration)”. Moreover, where the note is “at 100 µg/mL”, the “Antimicrobial activity > 50% against C. acnes” value is listed as “Inhibit (A peptide was deemed to have antimicrobial activity if C. acnes growth was inhibited by more than 50% at a given concentration)”.

Turning to WFKAIPQAISALKKI [AMP-26], the “Concentration with antimicrobial activity >50%” value came out at 100 µg/mL and the “Category” value is on record as “Weak AMP”. Besides, the “Antimicrobial activity > 50% against C. acnes” value (at 25 µg/mL) is “No (A peptide was deemed to have antimicrobial activity if C. acnes growth was inhibited by more than 50% at a given concentration)”. Where the note is “at 50 µg/mL”, the “Antimicrobial activity > 50% against C. acnes” value is recorded as “No (A peptide was deemed to have antimicrobial activity if C. acnes growth was inhibited by more than 50% at a given concentration)”. Also, the “Antimicrobial activity > 50% against C. acnes” value (at 100 µg/mL) was “Inhibit (A peptide was deemed to have antimicrobial activity if C. acnes growth was inhibited by more than 50% at a given concentration)”.

Consider FKRLQKLLFTLKQK [AMP-40], for which the “Concentration with antimicrobial activity >50%” value is listed as “no” and the “Category” value is listed as “No AMP”. The “Antimicrobial activity > 50% against C. acnes” value (at 25 µg/mL) is “No (A peptide was deemed to have antimicrobial activity if C. acnes growth was inhibited by more than 50% at a given concentration)”. The “Antimicrobial activity > 50% against C. acnes” value (at 50 µg/mL) is listed as “No (A peptide was deemed to have antimicrobial activity if C. acnes growth was inhibited by more than 50% at a given concentration)”. Further, the “Antimicrobial activity > 50% against C. acnes” value (at 100 µg/mL) was “No (A peptide was deemed to have antimicrobial activity if C. acnes growth was inhibited by more than 50% at a given concentration)”.

Regarding KKLAGLAKKWWKPLR [AMP-22], the “Category” value is “Medium AMP”. The “Antimicrobial activity > 50% against C. acnes” value (at 25 µg/mL) is on record as “No (A peptide was deemed to have antimicrobial activity if C. acnes growth was inhibited by more than 50% at a given concentration)”. The “Antimicrobial activity > 50% against C. acnes” value (at 50 µg/mL) was “Inhibit (A peptide was deemed to have antimicrobial activity if C. acnes growth was inhibited by more than 50% at a given concentration)”. In addition, the “Antimicrobial activity > 50% against C. acnes” value (at 100 µg/mL) is listed as “Inhibit (A peptide was deemed to have antimicrobial activity if C. acnes growth was inhibited by more than 50% at a given concentration)”.

Take KALAATVKKVAKLIK [AMP-34]: the “Concentration with antimicrobial activity >50%” value is “no” and the “Category” value is given as “No AMP”. Further, the “Antimicrobial activity > 50% against C. acnes” value (at 25 µg/mL) is “No (A peptide was deemed to have antimicrobial activity if C. acnes growth was inhibited by more than 50% at a given concentration)”. For the same sequence, the “Antimicrobial activity > 50% against C. acnes” value (at 50 µg/mL) is recorded as “No (A peptide was deemed to have antimicrobial activity if C. acnes growth was inhibited by more than 50% at a given concentration)”. Further, the “Antimicrobial activity > 50% against C. acnes” value (at 100 µg/mL) was “No (A peptide was deemed to have antimicrobial activity if C. acnes growth was inhibited by more than 50% at a given concentration)”.
